Laboratory results: ChEMBL document CHEMBL5625174, “Are inhibitors of histone deacetylase 8 (HDAC8) effective in hematological cancers especially acute myeloid leukemia (AML) and acute lymphoblastic leukemia (ALL)?” (Eur J Med Chem, 2023)
pIC50: −log10 of the molar value.

What was measured:
Type in all cases: functional, cell-based
[1] = system: U-937; assay: Cytotoxicity against human U-937 cells assessed as reduction in cell viability
[2] = system: MOLT-4; assay: Cytotoxicity against human MOLT-4 cells assessed as reduction in cell viability
[3] = system: Jurkat E6.1; assay: Cytotoxicity against human Jurkat E6.1 cells assessed as reduction in cell viability

Structure (SMILES)	pIC50 [1]	pIC50 [2]	pIC50 [3]
O=C(O)CC[C@H](NC(=O)Cc1ccc(Cl)cc1)C(=O)NC1CCCCC1	< 4.46	> 4.46	> 4.46
O=C(O)CC[C@H](NC(=O)Cc1ccccc1Br)C(=O)Nc1ccccc1	< 4.46	> 4.46	< 4.46
O=C(O)CC[C@H](NC(=O)Cc1ccccc1)C(=O)NCc1ccccc1	< 4.46	< 4.46	< 4.46
CCCCCNC(=O)[C@H](CCC(=O)O)NC(=O)Cc1ccccc1F	< 4.46	> 4.46	> 4.46
CCCNC(=O)[C@H](CCC(=O)O)NC(=O)Cc1ccc(Br)cc1	< 4.46	≥ 4.46	≥ 4.46
CC(C)(C)NC(=O)[C@H](CCC(=O)O)NC(=O)Cc1ccc(Cl)cc1	< 4.46	> 4.46	> 4.46
CCCCCNC(=O)[C@H](CCC(=O)O)NC(=O)Cc1ccccc1Cl	< 4.46	< 4.46	≥ 4.46
O=C(O)CC[C@H](NC(=O)Cc1ccc(-c2ccccc2)cc1)C(=O)NC1CCCCC1	< 4.46	> 4.46	> 4.46
CCCNC(=O)[C@H](CCC(=O)O)NC(=O)Cc1ccccc1F	< 4.46	< 4.46	< 4.46
CCCNC(=O)[C@H](CCC(=O)O)NC(=O)Cc1ccccc1	< 4.46	≥ 4.46	≥ 4.46
CCCCCCNC(=O)[C@H](CCC(=O)O)NC(=O)Cc1ccccc1Br	> 4.46	> 4.46	> 4.46
CC(C)CNC(=O)[C@H](CCC(=O)O)NC(=O)Cc1ccccc1Br	< 4.46	> 4.46	> 4.46
CC(C)CNC(=O)[C@H](CCC(=O)O)NC(=O)Cc1ccc(-c2ccccc2)cc1	< 4.46	< 4.46	< 4.46
CCCCCCNC(=O)[C@H](CCC(=O)O)NC(=O)Cc1ccccc1F	< 4.46	> 4.46	> 4.46
CC(C)CNC(=O)[C@H](CCC(=O)O)NC(=O)Cc1ccccc1F	< 4.46	≥ 4.46	≥ 4.46
CCCCCNC(=O)[C@H](CCC(=O)O)NC(=O)Cc1ccccc1Br	< 4.46	> 4.46	< 4.46
CCCCNC(=O)[C@H](CCC(=O)O)NC(=O)Cc1ccccc1Cl	< 4.46	≥ 4.46	≥ 4.46
CCCCNC(=O)[C@H](CCC(=O)O)NC(=O)Cc1ccccc1	< 4.46	≥ 4.46	< 4.46
CC(C)(C)NC(=O)[C@H](CCC(=O)O)NC(=O)Cc1ccc([N+](=O)[O-])cc1	< 4.46	> 4.46	< 4.46
CCCCNC(=O)[C@H](CCC(=O)O)NC(=O)Cc1ccc(Cl)cc1Cl	< 4.46	> 4.46	> 4.46
O=C(O)CC[C@H](NC(=O)Cc1ccccc1)C(=O)Nc1ccccc1	≥ 4.46	≥ 4.46	≥ 4.46
O=C(O)CC[C@H](NC(=O)Cc1ccc([N+](=O)[O-])cc1)C(=O)NCc1ccccc1	< 4.46	> 4.46	> 4.46
COc1ccc(CC(=O)N[C@@H](CCC(=O)O)C(=O)NCC(C)C)cc1	< 4.46	< 4.46	< 4.46
CC(C)NC(=O)[C@H](CCC(=O)O)NC(=O)Cc1ccccc1F	< 4.46	< 4.46	< 4.46
CC(C)NC(=O)[C@H](CCC(=O)O)NC(=O)Cc1ccc(Cl)cc1	≥ 4.46	≥ 4.46	≥ 4.46
O=C(O)CC[C@H](NC(=O)Cc1ccccc1Cl)C(=O)NCc1ccccc1	< 4.46	≥ 4.46	≥ 4.46

Structure (SMILES)	pIC50 [1]	pIC50 [2]	pIC50 [3]
O=C(O)CC[C@H](NC(=O)Cc1ccccc1F)C(=O)Nc1ccccc1	< 4.46	> 4.46	> 4.46
CC(C)NC(=O)[C@H](CCC(=O)O)NC(=O)Cc1ccccc1	< 4.46	≥ 4.46	≥ 4.46
CCCCNC(=O)[C@H](CCC(=O)O)NC(=O)Cc1ccccc1F	< 4.46	< 4.46	> 4.46
CCCCNC(=O)[C@H](CCC(=O)O)NC(=O)Cc1ccc([N+](=O)[O-])cc1	< 4.46	> 4.46	> 4.46
CC(C)NC(=O)[C@H](CCC(=O)O)NC(=O)Cc1ccc(-c2ccccc2)cc1	< 4.46	< 4.46	> 4.46
COc1ccc(CC(=O)N[C@@H](CCC(=O)O)C(=O)NC(C)(C)C)cc1	< 4.46	< 4.46	< 4.46
Cc1ccccc1CC(=O)N[C@@H](CCC(=O)O)C(=O)Nc1ccccc1	< 4.46	< 4.46	< 4.46
CCCNC(=O)[C@H](CCC(=O)O)NC(=O)Cc1ccc(-c2ccccc2)cc1	< 4.46	> 4.46	> 4.46
CCCCCNC(=O)[C@H](CCC(=O)O)NC(=O)Cc1ccc(Br)cc1	< 4.46	≥ 4.46	≥ 4.46
CCCCCCNC(=O)[C@H](CCC(=O)O)NC(=O)Cc1ccc2ccccc2c1	< 4.46	≥ 4.46	≥ 4.46
CCCNC(=O)[C@H](CCC(=O)O)NC(=O)Cc1ccc(Cl)cc1	< 4.46	< 4.46	≥ 4.46
CC(C)(C)NC(=O)[C@H](CCC(=O)O)NC(=O)Cc1ccccc1	≥ 4.46	≥ 4.46	≥ 4.46
CC(C)CNC(=O)[C@H](CCC(=O)O)NC(=O)Cc1ccccc1Cl	< 4.46	≥ 4.46	≥ 4.46
CCCCCNC(=O)[C@H](CCC(=O)O)NC(=O)Cc1ccccc1	< 4.46	≥ 4.46	≥ 4.46
CCCCNC(=O)[C@H](CCC(=O)O)NC(=O)Cc1ccc(Br)cc1	< 4.46	≥ 4.46	≥ 4.46
CC(C)CNC(=O)[C@H](CCC(=O)O)NC(=O)Cc1ccccc1	< 4.46	< 4.46	< 4.46
CC(C)CNC(=O)[C@H](CCC(=O)O)NC(=O)Cc1ccc(Br)cc1	< 4.46	< 4.46	< 4.46
O=C(O)CC[C@H](NC(=O)Cc1ccc(Br)cc1)C(=O)NC1CCCCC1	< 4.46	≥ 4.46	≥ 4.46
CCCCCNC(=O)[C@H](CCC(=O)O)NC(=O)Cc1ccc([N+](=O)[O-])cc1	< 4.46	> 4.46	> 4.46
CCCCCCNC(=O)[C@H](CCC(=O)O)NC(=O)Cc1ccccc1Cl	< 4.46	< 4.46	< 4.46
O=C(O)CC[C@H](NC(=O)Cc1ccccc1)C(=O)NC1CCCCC1	≥ 4.46	< 4.46	≥ 4.46
COc1ccc(CC(=O)N[C@@H](CCC(=O)O)C(=O)NCc2ccccc2)cc1	< 4.46	≥ 4.46	≥ 4.46
CCCCCNC(=O)[C@H](CCC(=O)O)NC(=O)Cc1ccc(Cl)cc1Cl	> 4.46	> 4.46	> 4.46
CC(C)NC(=O)[C@H](CCC(=O)O)NC(=O)Cc1ccccc1Br	< 4.46	< 4.46	< 4.46
CCCCNC(=O)[C@H](CCC(=O)O)NC(=O)Cc1ccc(-c2ccccc2)cc1	< 4.46	> 4.46	> 4.46
